Laboratory results reported in ChEMBL document CHEMBL1134923, “Novel semi-synthetic glycopeptide antibiotics active against methicillin-resistant staphylococcus aureus (MRSA) and vancomycin-resistant Enterococci (VRE): doubly-modified water-soluble derivatives of chloroorienticin B” (Bioorg Med Chem Lett, 2002).
≈ marks a conversion by molar mass, not a printed value.

Columns and labels:
[1] = tested on: Enterococcus faecium; test: Minimum Inhibitory Concentration against Enterococcus faecium SR-7917 (VRE) was determined; type: functional
[2] = tested on: Enterococcus faecalis; test: Minimum Inhibitory Concentration against Enterococcus faecalis SR-7914 (VRE) was determined; type: functional
[3] = tested on: Staphylococcus aureus; test: Minimum Inhibitory Concentration against Staphylococcus aureus SR-3637 (MRSA) was determined; type: functional
[4] = Solubility in water was determined; type: physicochemical

With `CCCCCCCCCCCCCN[C@@]1(C)C[C@H](O[C@@H]2c3ccc(c(Cl)c3)Oc3cc4cc(c3O[C@@H]3O[C@H](CO)[C@@H](O)[C@H](O)[C@H]3O)Oc3ccc(cc3Cl)[C@@H](O)[C@@H](NC(=O)[C@@H](CC(C)C)NC)C(=O)N[C@@H](CC(N)=O)C(=O)N[C@H]4C(=O)NC3C(=O)NC2C(=O)N[C@@H](C(=O)O)c2cc(O)cc(O)c2-c2cc3ccc2O)O[C@@H](C)[C@@H]1O` (some centres not stated) as the molecule, how does the MIC [1] read?
The MIC was 6.25 mg/L (≈ 3.83 µM).

And the MIC [2]?
The MIC was 12.5 mg/L (≈ 7.66 µM).

What about the MIC [3] of the same molecule?
Its MIC is 0.2 mg/L (≈ 0.123 µM).

With `CN[C@H](CC(C)C)C(=O)N[C@H]1C(=O)N[C@@H](CC(N)=O)C(=O)N[C@H]2C(=O)NC3C(=O)NC(C(=O)N[C@@H](C(=O)O)c4cc(O)cc(O)c4-c4cc3ccc4O)[C@H](O[C@H]3C[C@](C)(NCc4ccc(C#Cc5ccc(Cl)cc5)cc4)[C@@H](O)[C@H](C)O3)c3ccc(c(Cl)c3)Oc3cc2cc(c3O[C@@H]2O[C@H](CO)[C@@H](O)[C@H](O)[C@H]2O)Oc2ccc(cc2Cl)[C@H]1O` (some centres not stated) as the molecule, how does the MIC [1] read?
Its MIC is 6.25 mg/L (≈ 3.73 µM).

And the MIC [2]?
Its MIC is 12.5 mg/L (≈ 7.47 µM).

What about the MIC [3] of the same molecule?
The MIC was 0.2 mg/L (≈ 0.119 µM).

For `CN[C@H](CC(C)C)C(=O)N[C@H]1C(=O)N[C@@H](CC(N)=O)C(=O)N[C@H]2C(=O)NC3C(=O)NC(C(=O)N[C@@H](C(=O)O)c4cc(O)cc(O)c4-c4cc3ccc4O)[C@H](O[C@H]3C[C@](C)(N)[C@@H](O)[C@H](C)O3)c3ccc(c(Cl)c3)Oc3cc2cc(c3O[C@@H]2O[C@H](CO)[C@@H](O)[C@H](O)[C@H]2O)Oc2ccc(cc2Cl)[C@H]1O` (some centres not stated), which MIC [1] is on record?
The MIC was greater than 100 mg/L.

What about the MIC [2] of the same molecule?
Its MIC is greater than 100 mg/L.

What about the Solubility [4] of the same molecule?
The Solubility was greater than 10%.

And the MIC [3]?
The MIC was 0.78 mg/L (≈ 0.538 µM).

With `CCCCCCCOc1ccc(CN[C@@]2(C)C[C@H](O[C@@H]3c4ccc(c(Cl)c4)Oc4cc5cc(c4O[C@@H]4O[C@H](CO)[C@@H](O)[C@H](O)[C@H]4O)Oc4ccc(cc4Cl)[C@@H](O)[C@@H](NC(=O)[C@@H](CC(C)C)NC)C(=O)N[C@@H](CC(N)=O)C(=O)N[C@H]5C(=O)NC4C(=O)NC3C(=O)N[C@@H](C(=O)O)c3cc(O)cc(O)c3-c3cc4ccc3O)O[C@@H](C)[C@@H]2O)cc1` (some centres not stated) as the molecule, how does the MIC [1] read?
The MIC was 12.5 mg/L (≈ 7.56 µM).

What about the MIC [2] of the same molecule?
Its MIC is 25 mg/L (≈ 15.1 µM).

What about the MIC [3] of the same molecule?
The MIC was 0.39 mg/L (≈ 0.236 µM).

With `CN[C@H](CC(C)C)C(=O)N[C@H]1C(=O)N[C@@H](CC(N)=O)C(=O)N[C@H]2C(=O)NC3C(=O)NC(C(=O)N[C@@H](C(=O)O)c4cc(O)cc(O)c4-c4cc3ccc4O)[C@H](O[C@H]3C[C@](C)(NCc4ccc(/C=C/c5ccc(Cl)cc5)cc4)[C@@H](O)[C@H](C)O3)c3ccc(c(Cl)c3)Oc3cc2cc(c3O[C@@H]2O[C@H](CO)[C@@H](O)[C@H](O)[C@H]2O)Oc2ccc(cc2Cl)[C@H]1O` (some centres not stated) as the molecule, how does the MIC [1] read?
The MIC was 6.25 mg/L (≈ 3.73 µM).

What about the MIC [2] of the same molecule?
Its MIC is 6.25 mg/L (≈ 3.73 µM).

What about the Solubility [4] of the same molecule?
The Solubility was less than 1%.

What about the MIC [3] of the same molecule?
The MIC was 0.2 mg/L (≈ 0.119 µM).

With `CN[C@H](CC(C)C)C(=O)N[C@H]1C(=O)N[C@@H](CC(N)=O)C(=O)N[C@H]2C(=O)NC3C(=O)NC(C(=O)N[C@@H](C(=O)O)c4cc(O)cc(O)c4-c4cc3ccc4O)[C@H](O[C@H]3C[C@](C)(NCc4ccc(-c5ccc(-c6ccccc6)cc5)cc4)[C@@H](O)[C@H](C)O3)c3ccc(c(Cl)c3)Oc3cc2cc(c3O[C@@H]2O[C@H](CO)[C@@H](O)[C@H](O)[C@H]2O)Oc2ccc(cc2Cl)[C@H]1O` (some centres not stated) as the molecule, how does the MIC [1] read?
The MIC was 3.13 mg/L (≈ 1.85 µM).

What about the MIC [2] of the same molecule?
The MIC was 12.5 mg/L (≈ 7.39 µM).

And the MIC [3]?
The MIC was 0.39 mg/L (≈ 0.231 µM).

What does the source list for `CN[C@H](CC(C)C)C(=O)N[C@H]1C(=O)N[C@@H](CC(N)=O)C(=O)N[C@H]2C(=O)NC3C(=O)NC(C(=O)N[C@@H](C(=O)O)c4cc(O)cc(O)c4-c4cc3ccc4O)[C@H](O[C@H]3C[C@](C)(NCc4ccc(-c5ccc(Cl)cc5)cc4)[C@@H](O)[C@H](C)O3)c3ccc(c(Cl)c3)Oc3cc2cc(c3O[C@@H]2O[C@H](CO)[C@@H](O)[C@H](O)[C@H]2O)Oc2ccc(cc2Cl)[C@H]1O` (some centres not stated)?
MIC [1]: 6.25 mg/L (≈ 3.79 µM); MIC [2]: 12.5 mg/L (≈ 7.58 µM); MIC [3]: 0.1 mg/L (≈ 0.0606 µM)

Which MIC [1] does the source give for `CN[C@H](CC(C)C)C(=O)N[C@H]1C(=O)N[C@@H](CC(N)=O)C(=O)N[C@H]2C(=O)N[C@H]3C(=O)N[C@H](C(=O)N[C@H](C(=O)O)c4cc(O)cc(O)c4-c4cc3ccc4O)[C@H](O)c3ccc(c(Cl)c3)Oc3cc2cc(c3O[C@@H]2O[C@H](CO)[C@@H](O)[C@H](O)[C@H]2O[C@H]2C[C@](C)(N)[C@H](O)[C@H](C)O2)Oc2ccc(cc2Cl)[C@H]1O` [VANCOMYCIN] here?
The MIC was greater than 100 mg/L.

And the MIC [2]?
Its MIC is greater than 100 mg/L.

And the Solubility [4]?
The Solubility was greater than 10%.

And the MIC [3]?
The MIC was 1.56 mg/L (≈ 1.08 µM).
